Values of other authors as cited in US8333959B2, “Ex-vivo application of solid microparticulate therapeutic agents” (Baxter International Inc., priority 2004, dated 2012).

Test system: HIV-infected macrophages

Q: What does the source list for `CC(C)(C)NC(=O)[C@@H]1C[C@@H]2CCCC[C@@H]2CN1C[C@@H](O)[C@H](Cc1ccccc1)NC(=O)[C@H](CC(N)=O)NC(=O)c1ccc2ccccc2n1` [saquinavir]?
A: antiviral activity in HIV-infected macrophages (HIV-infected macrophages, in vitro, solution vs nanoparticulate formulation): little antiviral activity; antiviral activity in chronically HIV-infected macrophages (concentration of 100 nM, chronically HIV-infected macrophages): completely inactive
